In one experiment the target is T1, Estrogen receptor (Homo sapiens, UniProt P03372). Note: in other assays of this panel Not Active means under 50% inhibition at 10 µM.
T1 sequence (P03372 whole entry): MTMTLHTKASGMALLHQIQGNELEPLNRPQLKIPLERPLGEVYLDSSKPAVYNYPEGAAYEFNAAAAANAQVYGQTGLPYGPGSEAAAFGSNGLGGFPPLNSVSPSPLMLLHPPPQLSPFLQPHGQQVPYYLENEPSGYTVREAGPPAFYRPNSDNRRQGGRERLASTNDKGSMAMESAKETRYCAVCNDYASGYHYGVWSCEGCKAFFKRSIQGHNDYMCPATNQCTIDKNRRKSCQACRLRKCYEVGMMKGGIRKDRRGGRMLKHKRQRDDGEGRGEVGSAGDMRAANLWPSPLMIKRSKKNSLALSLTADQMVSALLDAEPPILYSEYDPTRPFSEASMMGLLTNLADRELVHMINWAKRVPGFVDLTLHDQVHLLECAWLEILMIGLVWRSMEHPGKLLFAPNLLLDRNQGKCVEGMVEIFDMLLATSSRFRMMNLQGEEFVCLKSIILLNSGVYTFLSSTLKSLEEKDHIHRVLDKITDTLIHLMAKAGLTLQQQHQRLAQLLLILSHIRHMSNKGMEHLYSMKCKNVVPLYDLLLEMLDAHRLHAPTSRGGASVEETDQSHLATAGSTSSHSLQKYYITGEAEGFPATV
As to conditions: sf9.

The target in the next experiment is T2, Leukotriene C4 synthase (Cavia porcellus, UniProt A6XA80).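 Note: enzyme inhibition assay of leukotriene C4 synthase, using LTA4 as the substrate; in other assays of this panel Not Active means under 50% inhibition at 10 µM.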
T2 sequence (A6XA80 whole entry): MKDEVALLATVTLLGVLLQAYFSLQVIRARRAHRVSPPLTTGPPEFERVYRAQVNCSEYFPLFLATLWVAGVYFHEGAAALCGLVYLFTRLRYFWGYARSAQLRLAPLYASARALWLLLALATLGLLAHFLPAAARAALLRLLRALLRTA
The experiment is classed as tissue-based, Lung.

In experiment [1] the target is T3, Amine oxidase [flavin-containing] A (Homo sapiens, UniProt P21397).
T3 sequence (P21397 whole entry): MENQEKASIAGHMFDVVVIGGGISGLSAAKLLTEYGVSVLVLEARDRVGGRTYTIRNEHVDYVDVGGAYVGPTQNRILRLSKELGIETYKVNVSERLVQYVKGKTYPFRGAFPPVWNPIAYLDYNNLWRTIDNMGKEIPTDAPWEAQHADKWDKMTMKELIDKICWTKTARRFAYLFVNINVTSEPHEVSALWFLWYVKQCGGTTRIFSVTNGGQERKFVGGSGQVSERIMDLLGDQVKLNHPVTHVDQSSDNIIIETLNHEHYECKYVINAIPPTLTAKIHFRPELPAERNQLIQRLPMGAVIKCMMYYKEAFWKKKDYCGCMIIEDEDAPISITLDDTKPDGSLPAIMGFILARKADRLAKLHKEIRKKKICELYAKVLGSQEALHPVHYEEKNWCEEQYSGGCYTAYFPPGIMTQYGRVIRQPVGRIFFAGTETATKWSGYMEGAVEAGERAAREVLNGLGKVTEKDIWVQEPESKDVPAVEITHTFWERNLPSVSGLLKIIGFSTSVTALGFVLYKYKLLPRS
Briefly: DRUGMATRIX: Monoamine Oxidase MAO-A enzyme inhibition (substrate: Kynuramine). Further details: species or system BTI-TN-5B1-4. Conditions: bti-tn-5b1-4; Not Active = under 50% inhibition at 10 µM.

Experiment [2] is described as follows: DRUGMATRIX: Serotonin (5-Hydroxytryptamine) 5-HT3 radioligand binding (ligand: [3H] GR-65630). The experiment is classed as cell membranes, Membrane. As to conditions: hek293; Not Active = under 50% inhibition at 10 µM.
A short description of experiment [3]: DRUGMATRIX: Atrial Natriuretic Factor (ANF) radioligand binding (ligand: [125I] ANF (rat)). Conditions: Not Active = under 50% inhibition at 10 µM. The experiment is classed as cell membranes, Cavia porcellus, Dunkin-Hartley, Adrenal gland, Membrane.
The target of the next experiment is Melanocortin receptor 3 (Homo sapiens, UniProt P41968). The experiment is classed as cell membranes, HEK293, Membrane. Note: in other assays of this panel Not Active means under 50% inhibition at 10 µM.
Sequence of Melanocortin receptor 3 (P41968 whole entry): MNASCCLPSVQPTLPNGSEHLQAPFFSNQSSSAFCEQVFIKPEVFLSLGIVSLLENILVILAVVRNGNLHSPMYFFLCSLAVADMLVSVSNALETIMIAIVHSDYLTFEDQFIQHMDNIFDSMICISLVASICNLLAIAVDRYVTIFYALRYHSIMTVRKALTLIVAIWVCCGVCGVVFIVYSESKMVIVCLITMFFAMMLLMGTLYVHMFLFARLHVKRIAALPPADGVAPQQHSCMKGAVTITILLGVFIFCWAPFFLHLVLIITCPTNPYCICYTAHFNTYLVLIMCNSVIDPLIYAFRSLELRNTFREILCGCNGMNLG
In another experiment the target is D(1A) dopamine receptor (Homo sapiens, UniProt P21728). As to the kind of experiment: DRUGMATRIX: Dopamine D1 radioligand binding (ligand: [3H] SCH-23390). As to conditions: cho; Not Active = under 50% inhibition at 10 µM. The experiment is classed as cell membranes, CHO, Membrane.
Sequence of D(1A) dopamine receptor (P21728 whole entry): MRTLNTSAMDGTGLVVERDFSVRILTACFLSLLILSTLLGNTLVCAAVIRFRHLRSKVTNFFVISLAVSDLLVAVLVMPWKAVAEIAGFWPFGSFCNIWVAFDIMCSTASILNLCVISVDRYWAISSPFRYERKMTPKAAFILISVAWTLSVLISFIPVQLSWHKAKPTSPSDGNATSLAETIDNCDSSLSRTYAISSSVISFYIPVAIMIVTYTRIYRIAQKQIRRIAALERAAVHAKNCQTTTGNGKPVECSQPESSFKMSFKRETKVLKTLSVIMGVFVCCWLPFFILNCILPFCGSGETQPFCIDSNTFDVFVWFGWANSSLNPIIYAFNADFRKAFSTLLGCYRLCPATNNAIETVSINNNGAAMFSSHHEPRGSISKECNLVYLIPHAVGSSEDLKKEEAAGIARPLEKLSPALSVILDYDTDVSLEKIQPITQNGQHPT
Experiment [4] addresses T4, Cysteinyl leukotriene receptor 1 (Homo sapiens, UniProt Q9Y271).
T4 sequence (Q9Y271 whole entry): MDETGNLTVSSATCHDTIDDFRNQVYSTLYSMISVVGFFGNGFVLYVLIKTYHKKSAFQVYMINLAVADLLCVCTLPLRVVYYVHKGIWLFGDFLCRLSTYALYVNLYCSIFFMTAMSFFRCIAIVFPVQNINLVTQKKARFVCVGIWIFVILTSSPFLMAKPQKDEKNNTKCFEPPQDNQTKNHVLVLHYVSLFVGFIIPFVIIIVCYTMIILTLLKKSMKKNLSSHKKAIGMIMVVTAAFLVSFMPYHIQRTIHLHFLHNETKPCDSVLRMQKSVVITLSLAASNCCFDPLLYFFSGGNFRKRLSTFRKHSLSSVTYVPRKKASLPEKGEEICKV
The experiment is classed as cell membranes, Membrane. Conditions: cho-k1.

Take `Cc1c(C)c2c(c(C)c1O)CCC(C)(CN1CCN(c3cc(N4CCCC4)nc(N4CCCC4)n3)CC1)O2` (stereo not given): the IC50 (as a rule, the point on the concentration scale where inhibition reaches its midpoint) against Estrogen receptor is “Not Active”; at Leukotriene C4 synthase it was “Not Active”; in experiment [1], “Not Active”; in experiment [2], “Not Active”; in experiment [3], “Not Active”; at Melanocortin receptor 3 (read-out: IC50), 17.3 µM. In addition, the IC50 result (on D(1A) dopamine receptor; in experiment [4]) was “Not Active” each time. Besides, the results for the inhibition constant Ki entry (in experiment [2]; in experiment [3]; on Melanocortin receptor 3 (read-out: Ki)) were “Not Active”, “Not Active” and 15.1 µM, respectively.

As for `COc1ccc(CCN(C)CCCC(C#N)(c2ccc(OC)c(OC)c2)C(C)C)cc1OC` (stereo not given), the IC50 entry (at Estrogen receptor; at Leukotriene C4 synthase; in experiment [1]; in experiment [2]; in experiment [3]; against Melanocortin receptor 3 (hek293)) was “Not Active” each time. Further, the IC50 entry (on D(1A) dopamine receptor; in experiment [4]) was “Not Active” in each case. Further, the inhibitory constant (Ki) entry in experiment [2] and in experiment [3] was “Not Active” throughout.

With `CC(C)Cc1ccc([C@@H](C)C(=O)O)cc1` [(R)-IBUPROPHEN], the IC50 entry (against Estrogen receptor; on Leukotriene C4 synthase; in experiment [1]; in experiment [2]; in experiment [3]; at Melanocortin receptor 3 (hek293)) was “Not Active” in each case. Besides, the IC50 entry (at D(1A) dopamine receptor; in experiment [4]) was “Not Active” throughout. The Ki result in experiment [2] and in experiment [3] was “Not Active” each time.

For the compound `Cc1ccc(NC(=O)c2ccc(CN3CCN(C)CC3)cc2)cc1Nc1nccc(-c2cccnc2)n1` [IMATINIB], the IC50 result (against Estrogen receptor; against Leukotriene C4 synthase; in experiment [1]; against Melanocortin receptor 3 (hek293); in experiment [4]) was “Not Active” in each case.

`CNC1(c2ccccc2Cl)CCCCC1=O` (stereo not given) [KETAMINE]: the IC50 entry (on Estrogen receptor; at Leukotriene C4 synthase; in experiment [1]; in experiment [2]; in experiment [3]; against Melanocortin receptor 3 (hek293)) was “Not Active” each time. The IC50 result (at D(1A) dopamine receptor; in experiment [4]) was “Not Active” each time. Further, the Ki entry in experiment [2] and in experiment [3] was “Not Active” throughout.

`N#Cc1ccc(C(c2ccc(C#N)cc2)n2cncn2)cc1` [LETROZOLE]: the half-maximal inhibitory concentration (IC50) entry (against Estrogen receptor; at Leukotriene C4 synthase; in experiment [1]; in experiment [2]; in experiment [3]; at Melanocortin receptor 3 (hek293)) was “Not Active” throughout. In addition, the IC50 entry (on D(1A) dopamine receptor; in experiment [4]) was “Not Active” throughout. Moreover, the Ki entry in experiment [2] and in experiment [3] was “Not Active” throughout.

As for `O=C1Nc2ccc(Cl)cc2C(c2ccccc2Cl)=NC1O` (stereo not given) [LORAZEPAM], the IC50 entry (at Estrogen receptor; on Leukotriene C4 synthase; in experiment [1]; in experiment [2]; in experiment [3]; on Melanocortin receptor 3 (hek293)) was “Not Active” throughout. Besides, the IC50 entry (at D(1A) dopamine receptor; in experiment [4]) was “Not Active” throughout. Further, the Ki result in experiment [2] and in experiment [3] was “Not Active” throughout.

For the compound `CO[C@@H]1[C@@H](OC)[C@H](C)[C@@](O)(CC(=O)O)O[C@H]1[C@H](C)[C@H]1O[C@@]2(CC[C@@](C)([C@H]3CC[C@@](C)([C@@H]4O[C@@H]([C@H]5O[C@](C)(O)[C@H](C)C[C@@H]5C)C[C@@H]4O[C@@H]4C[C@H](OC)[C@@H](OC)[C@H](C)O4)O3)O2)C[C@H](O)[C@H]1C` [MADURAMICIN ACID], the IC50 result (on Estrogen receptor; on Leukotriene C4 synthase; in experiment [1]; in experiment [2]; in experiment [3]; at Melanocortin receptor 3 (hek293)) was “Not Active” each time. For the same compound, the IC50 entry in experiment [4] is on record as “Not Active”. The Ki entry in experiment [2] and in experiment [3] was “Not Active” each time.

Take `Cc1cccc(C)c1OCC(C)N` (stereo not given) [MEXILETINE]: the IC50 entry (at Estrogen receptor; against Leukotriene C4 synthase; in experiment [1]; in experiment [2]; in experiment [3]; against Melanocortin receptor 3 (hek293)) was “Not Active” in each case. In addition, the IC50 entry (at D(1A) dopamine receptor; in experiment [4]) was “Not Active” each time. Also, the Ki entry in experiment [2] and in experiment [3] was “Not Active” throughout.

Turning to `Nc1cc(N2CCCCC2)nc(N)[n+]1[O-]` [MINOXIDIL], the IC50 result (against Estrogen receptor; against Leukotriene C4 synthase; in experiment [1]; in experiment [2]; in experiment [3]; against Melanocortin receptor 3 (hek293)) was “Not Active” in each case. Moreover, the IC50 entry (on D(1A) dopamine receptor; in experiment [4]) was “Not Active” each time. In addition, the Ki result in experiment [2] and in experiment [3] was “Not Active” each time.

Regarding `CO[C@H]1/C=C/O[C@@]2(C)Oc3c(C)c(O)c4c(O)c(c(/C=N/N5CCN(C6CCCC6)CC5)c(O)c4c3C2=O)NC(=O)/C(C)=C\C=C\[C@H](C)[C@H](O)[C@@H](C)[C@@H](O)[C@@H](C)[C@H](OC(C)=O)[C@@H]1C` [RIFAPENTINE], the IC50 entry (on Estrogen receptor; on Leukotriene C4 synthase; in experiment [1]; in experiment [2]; in experiment [3]; against Melanocortin receptor 3 (hek293)) was “Not Active” in each case. For the same compound, the IC50 result (on D(1A) dopamine receptor; in experiment [4]) was “Not Active” each time. Besides, the inhibitory constant (Ki) entry in experiment [2] and in experiment [3] was “Not Active” in each case.

As to `CCCCOc1cc(CC2CNC(=O)N2)ccc1OC` (stereo not given) [RO-201724], the half-maximal inhibitory concentration (IC50) entry (at Estrogen receptor; at Leukotriene C4 synthase; in experiment [1]; in experiment [2]; in experiment [3]; at Melanocortin receptor 3 (hek293)) was “Not Active” throughout. For the same compound, the IC50 result (on D(1A) dopamine receptor; in experiment [4]) was “Not Active” each time. Further, the Ki result in experiment [2] and in experiment [3] was “Not Active” throughout.

As for `O=C(Oc1ccccc1C(=O)O)c1ccccc1O` [SALSALATE], the IC50 result (against Estrogen receptor; at Leukotriene C4 synthase; in experiment [1]; in experiment [2]; in experiment [3]; at Melanocortin receptor 3 (hek293)) was “Not Active” in each case. Moreover, the IC50 entry (at D(1A) dopamine receptor; in experiment [4]) was “Not Active” in each case. Further, the Ki entry in experiment [2] and in experiment [3] was “Not Active” each time.

As for `CN[C@H]1CC[C@@H](c2ccc(Cl)c(Cl)c2)c2ccccc21` [SERTRALINE], the IC50 result (against Estrogen receptor; against Leukotriene C4 synthase; in experiment [1]; against Melanocortin receptor 3 (hek293); in experiment [4]) was “Not Active” in each case.

Turning to `O=C1C(CC[S+]([O-])c2ccccc2)C(=O)N(c2ccccc2)N1c1ccccc1` (stereo not given) [SULFINPYRAZONE], the IC50 entry (against Estrogen receptor; at Leukotriene C4 synthase; in experiment [1]; in experiment [2]; in experiment [3]; on Melanocortin receptor 3 (hek293)) was “Not Active” each time. The IC50 entry (on D(1A) dopamine receptor; in experiment [4]) was “Not Active” in each case. Moreover, the Ki entry in experiment [2] and in experiment [3] was “Not Active” each time.

The values are drawn from ChEMBL document CHEMBL1909046, “DrugMatrix in vitro pharmacology data”.
